Experimental data taken from ChEMBL document CHEMBL1201862, “PubChem BioAssay data set” (2004).
The source made the active and inactive calls.

Assays:
INS1 = assay: INS-1E survival protection against cytokine death – cell-based, luminescence, retest, dose response (AID 449756); assay type: functional; conditions: Rattus norvegicus;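 note: cell death triggered by IL-1 beta plus TNF-alpha plus IFN-gamma mixture; protective hits raise ATP signal compared with cytokine alone wells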
[1] = Luminescence Cell-Based Dose Retest to Confirm Inhibitors of Cancer Stem Cells. [Related pubchem assays (depositor defined):AID2717, AID2721]; assay type: functional; conditions: Homo sapiens
[2] = reduction of Shn3 3'UTR-driven luciferase in osteoblasts – cell-based, Clone20 osteoblasts, firefly luciferase, cherry-picked, dose response (AID 624132); assay type: functional;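 note: firefly luciferase luminescence from reporter carrying the Shn3 3'UTR in osteoblasts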
[3] = loss of viability in HepG2 cells – cell-based, CellTiter-Glo, cherry-picked, cytotoxicity control for Shn3 inhibitor project, dose response (AID 624134); assay type: functional
[4] = target: RNA-editing ligase 1, mitochondrial (Trypanosoma brucei brucei, UniProt P86926); assay: inhibition of trypanosome RNA editing ligase – biochemical, fluorescence, Trypanosoma brucei, dose response (AID 1117295); assay type: functional
Chain of RNA-editing ligase 1, mitochondrial (P86926 whole entry): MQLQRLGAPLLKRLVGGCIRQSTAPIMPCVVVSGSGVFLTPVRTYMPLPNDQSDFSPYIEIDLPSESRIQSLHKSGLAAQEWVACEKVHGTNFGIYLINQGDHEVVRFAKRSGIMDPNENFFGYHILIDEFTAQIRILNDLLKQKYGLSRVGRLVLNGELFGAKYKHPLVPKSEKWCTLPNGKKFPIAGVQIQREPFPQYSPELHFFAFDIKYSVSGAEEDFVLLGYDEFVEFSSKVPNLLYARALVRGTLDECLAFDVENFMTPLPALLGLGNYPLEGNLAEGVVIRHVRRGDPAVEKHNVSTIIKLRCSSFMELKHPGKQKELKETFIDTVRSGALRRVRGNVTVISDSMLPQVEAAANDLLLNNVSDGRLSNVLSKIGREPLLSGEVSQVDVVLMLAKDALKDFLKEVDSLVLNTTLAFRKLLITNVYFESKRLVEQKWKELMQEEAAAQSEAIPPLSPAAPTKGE

[5] = non-specific 3'UTR reporter inhibition in Clone20-Shn3RL – cell-based, Renilla luciferase, cherry-picked, counter-screen for Shn3 inhibitor project, dose response (AID 624133); assay type: functional
Nonstructural protein 1 = Nonstructural protein 1 (Influenza A virus, UniProt Q194T2); assay type: functional, Influenza A virus (A/California/07/2009(H1N1))
Chain of Nonstructural protein 1 (Q194T2 whole entry): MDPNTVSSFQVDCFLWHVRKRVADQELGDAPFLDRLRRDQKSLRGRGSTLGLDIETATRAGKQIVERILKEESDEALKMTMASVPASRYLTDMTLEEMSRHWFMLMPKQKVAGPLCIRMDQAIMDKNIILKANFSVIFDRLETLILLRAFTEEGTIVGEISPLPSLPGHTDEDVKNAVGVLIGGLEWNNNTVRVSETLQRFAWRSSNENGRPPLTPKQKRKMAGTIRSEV

Protein Tat = Protein Tat (Human immunodeficiency virus type 1 group M subtype B (isolate HXB2)(HIV-1), UniProt P04608); assay type: functional;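 note: tat binding to TAR RNA read out by fluorescence polarization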
Chain of Protein Tat (P04608 whole entry): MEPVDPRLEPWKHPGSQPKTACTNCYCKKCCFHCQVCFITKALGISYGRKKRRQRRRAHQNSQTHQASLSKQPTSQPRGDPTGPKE

[6] = target: E3 ubiquitin-protein ligase Mdm2 (Homo sapiens, UniProt Q00987); assay: MDM2-luc reporter signal enhancers, multi-concentration potency testing, MDM2 ubiquitin-protein ligase inhibitor program, whole-cell format, luminescence detection, 384-well microplate (AID 1394); assay type: functional;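 note: MDM2 E3 inhibitors raise luminescence so EC50 is for signal enhancement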
Chain of E3 ubiquitin-protein ligase Mdm2 (Q00987 whole entry): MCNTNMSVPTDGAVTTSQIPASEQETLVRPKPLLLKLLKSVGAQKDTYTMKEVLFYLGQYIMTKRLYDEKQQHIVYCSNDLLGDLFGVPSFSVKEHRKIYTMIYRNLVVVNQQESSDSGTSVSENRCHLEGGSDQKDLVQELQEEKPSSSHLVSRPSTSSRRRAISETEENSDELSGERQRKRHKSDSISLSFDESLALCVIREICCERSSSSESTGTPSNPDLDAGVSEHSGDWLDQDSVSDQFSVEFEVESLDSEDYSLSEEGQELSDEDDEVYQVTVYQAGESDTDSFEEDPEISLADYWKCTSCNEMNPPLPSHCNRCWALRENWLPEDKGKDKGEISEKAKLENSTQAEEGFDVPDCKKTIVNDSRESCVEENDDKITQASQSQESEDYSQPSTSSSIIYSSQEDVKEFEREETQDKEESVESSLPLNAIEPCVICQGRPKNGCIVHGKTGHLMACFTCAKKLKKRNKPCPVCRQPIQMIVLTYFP

[7] = target: T1, E3 ubiquitin-protein ligase XIAP (Homo sapiens, UniProt P98170); assay: Counter Screen using XIAP-Bir3 for Chemical Antagonists of Bir1/2 domains of IAP-family anti-apoptotic proteins. [Related pubchem assays (depositor defined):AID1018, AID1449, AID1514, AID1638, AID1749, AID1750, AID488957, AID488963]
T1 sequence (P98170 whole entry): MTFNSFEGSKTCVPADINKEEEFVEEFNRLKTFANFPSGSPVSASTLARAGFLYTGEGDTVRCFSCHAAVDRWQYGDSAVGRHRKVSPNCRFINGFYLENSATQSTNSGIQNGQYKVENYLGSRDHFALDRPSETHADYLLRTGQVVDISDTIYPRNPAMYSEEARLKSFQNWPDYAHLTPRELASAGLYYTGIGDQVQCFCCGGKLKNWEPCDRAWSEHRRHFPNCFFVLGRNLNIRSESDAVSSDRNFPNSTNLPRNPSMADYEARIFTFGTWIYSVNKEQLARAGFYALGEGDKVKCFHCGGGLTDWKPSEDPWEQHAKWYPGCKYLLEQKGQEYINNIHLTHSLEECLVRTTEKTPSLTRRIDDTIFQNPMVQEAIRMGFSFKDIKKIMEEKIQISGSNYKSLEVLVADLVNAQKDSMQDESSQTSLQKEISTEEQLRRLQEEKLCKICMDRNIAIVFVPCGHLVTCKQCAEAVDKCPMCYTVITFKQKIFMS

[8] = target: T1, E3 ubiquitin-protein ligase XIAP; assay: small molecules displacing peptide from XIAP – biochemical, IAP family, fluorescence polarization (AID 1018); assay type: functional
Bcl-2-like protein 1 = Bcl-2-like protein 1 (Homo sapiens, UniProt Q07817); assay: blockers of BCLXL peptide binding – biochemical, fluorescence polarization, 1536-well, selectivity assay for MCL1 inhibitor project, dose response (AID 2218)
Chain of Bcl-2-like protein 1 (Q07817 whole entry): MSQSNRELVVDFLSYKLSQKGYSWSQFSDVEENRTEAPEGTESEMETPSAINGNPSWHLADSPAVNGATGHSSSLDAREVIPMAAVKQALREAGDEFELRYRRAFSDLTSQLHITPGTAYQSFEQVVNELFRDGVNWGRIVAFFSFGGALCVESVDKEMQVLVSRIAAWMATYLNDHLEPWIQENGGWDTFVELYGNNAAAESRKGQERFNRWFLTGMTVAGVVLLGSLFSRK

[9] = target: Induced myeloid leukemia cell differentiation protein Mcl-1 (Homo sapiens, UniProt Q07820); assay: blockers of MCL1 binding to BIM peptide – biochemical, fluorescence polarization, BIM-BH3 peptide, 1536-well, dose response (AID 2217)
Chain of Induced myeloid leukemia cell differentiation protein Mcl-1 (Q07820 whole entry): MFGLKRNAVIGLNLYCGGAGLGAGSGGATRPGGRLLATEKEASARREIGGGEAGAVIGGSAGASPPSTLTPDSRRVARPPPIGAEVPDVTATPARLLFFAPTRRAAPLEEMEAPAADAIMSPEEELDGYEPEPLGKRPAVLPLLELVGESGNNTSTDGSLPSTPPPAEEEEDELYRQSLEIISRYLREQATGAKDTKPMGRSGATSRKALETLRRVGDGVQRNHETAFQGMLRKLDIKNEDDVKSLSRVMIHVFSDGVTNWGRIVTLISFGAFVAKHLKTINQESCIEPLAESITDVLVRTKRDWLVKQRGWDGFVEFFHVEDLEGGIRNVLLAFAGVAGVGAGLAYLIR

Large T antigen = Large T antigen (Simian virus 40, UniProt P03070); assay type: functional, Betapolyomavirus macacae;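 note: Confirmatory-stage PubChem screen for compounds that inhibit SV40 T antigen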
Chain of Large T antigen (P03070 whole entry, the tested form may be a part): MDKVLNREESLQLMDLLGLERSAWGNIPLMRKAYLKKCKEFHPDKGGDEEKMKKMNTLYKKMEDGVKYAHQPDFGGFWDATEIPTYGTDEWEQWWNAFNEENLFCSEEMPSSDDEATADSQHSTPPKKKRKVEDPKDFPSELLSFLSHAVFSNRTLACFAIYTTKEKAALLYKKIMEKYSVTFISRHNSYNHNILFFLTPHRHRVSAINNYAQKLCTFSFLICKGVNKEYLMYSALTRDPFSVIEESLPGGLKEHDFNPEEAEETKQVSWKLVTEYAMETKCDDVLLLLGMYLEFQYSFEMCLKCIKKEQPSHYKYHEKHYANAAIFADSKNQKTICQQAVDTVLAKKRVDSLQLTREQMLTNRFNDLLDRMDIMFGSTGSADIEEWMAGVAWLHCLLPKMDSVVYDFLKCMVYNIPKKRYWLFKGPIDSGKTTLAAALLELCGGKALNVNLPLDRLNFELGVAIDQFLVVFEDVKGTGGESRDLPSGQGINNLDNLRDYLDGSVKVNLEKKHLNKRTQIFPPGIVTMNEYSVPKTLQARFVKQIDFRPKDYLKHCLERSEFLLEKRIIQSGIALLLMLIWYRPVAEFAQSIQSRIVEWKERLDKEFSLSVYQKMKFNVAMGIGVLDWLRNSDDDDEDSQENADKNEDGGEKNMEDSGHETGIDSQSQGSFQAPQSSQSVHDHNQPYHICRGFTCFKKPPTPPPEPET

Estrogen receptor = target: T2, Estrogen receptor (Homo sapiens, UniProt P03372); assay: ERα coactivator recruitment enhancers – biochemical, TR-FRET, ERα LBD, dose response (AID 737)
T2 sequence (P03372 whole entry): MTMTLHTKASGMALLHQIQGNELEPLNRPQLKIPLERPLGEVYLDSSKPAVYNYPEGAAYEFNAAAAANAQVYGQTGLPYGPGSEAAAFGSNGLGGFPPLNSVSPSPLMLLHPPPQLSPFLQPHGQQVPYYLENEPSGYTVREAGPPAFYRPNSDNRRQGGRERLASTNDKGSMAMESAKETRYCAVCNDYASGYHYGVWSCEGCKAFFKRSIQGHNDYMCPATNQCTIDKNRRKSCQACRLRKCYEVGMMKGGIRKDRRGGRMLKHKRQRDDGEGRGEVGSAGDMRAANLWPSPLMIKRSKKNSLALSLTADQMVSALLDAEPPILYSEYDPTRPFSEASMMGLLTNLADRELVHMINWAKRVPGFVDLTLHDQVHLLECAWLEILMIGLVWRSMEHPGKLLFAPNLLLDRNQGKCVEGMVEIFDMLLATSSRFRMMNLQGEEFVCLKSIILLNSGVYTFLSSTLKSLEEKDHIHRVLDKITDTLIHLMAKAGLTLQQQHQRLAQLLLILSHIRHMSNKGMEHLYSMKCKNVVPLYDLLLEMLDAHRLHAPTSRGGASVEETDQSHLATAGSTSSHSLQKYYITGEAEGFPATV

Estrogen receptor beta = Estrogen receptor beta (Homo sapiens, UniProt Q92731);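 note: recombinant ER-beta bound to coactivator SRC1 peptide in presence of estradiol agonist; inhibitors block coactivator peptide binding and lower the FRET signal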
Chain of Estrogen receptor beta (Q92731 whole entry, the tested form may be a part): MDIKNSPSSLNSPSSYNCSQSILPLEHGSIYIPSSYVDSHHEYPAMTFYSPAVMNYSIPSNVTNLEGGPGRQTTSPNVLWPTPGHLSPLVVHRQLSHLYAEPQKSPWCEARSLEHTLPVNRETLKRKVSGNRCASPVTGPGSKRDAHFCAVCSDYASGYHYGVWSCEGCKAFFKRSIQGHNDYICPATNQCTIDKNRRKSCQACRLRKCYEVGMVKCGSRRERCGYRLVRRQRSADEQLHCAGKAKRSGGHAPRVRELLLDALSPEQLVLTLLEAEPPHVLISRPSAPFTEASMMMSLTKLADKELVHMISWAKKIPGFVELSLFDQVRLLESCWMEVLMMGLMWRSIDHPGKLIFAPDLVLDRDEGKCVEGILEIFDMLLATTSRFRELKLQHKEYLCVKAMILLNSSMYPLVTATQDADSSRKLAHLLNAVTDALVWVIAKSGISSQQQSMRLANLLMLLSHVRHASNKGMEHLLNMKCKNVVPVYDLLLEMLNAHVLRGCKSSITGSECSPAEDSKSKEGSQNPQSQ

[10] = target: T3, Oxysterols receptor LXR-beta (Homo sapiens, UniProt P55055); assay type: functional, cell-based;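 note: Cell-based luminescence dose-response assay of agonist activity at LXR, run as a confirmatory counterscreen to a daf-12 agonist screen; HEK293 cells with Gal4-LXR fusion and GAL4-driven luciferase reporter; agonist potency from rising luciferase signal of a Gal4-LXR reporter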
T3 sequence (P55055 whole entry): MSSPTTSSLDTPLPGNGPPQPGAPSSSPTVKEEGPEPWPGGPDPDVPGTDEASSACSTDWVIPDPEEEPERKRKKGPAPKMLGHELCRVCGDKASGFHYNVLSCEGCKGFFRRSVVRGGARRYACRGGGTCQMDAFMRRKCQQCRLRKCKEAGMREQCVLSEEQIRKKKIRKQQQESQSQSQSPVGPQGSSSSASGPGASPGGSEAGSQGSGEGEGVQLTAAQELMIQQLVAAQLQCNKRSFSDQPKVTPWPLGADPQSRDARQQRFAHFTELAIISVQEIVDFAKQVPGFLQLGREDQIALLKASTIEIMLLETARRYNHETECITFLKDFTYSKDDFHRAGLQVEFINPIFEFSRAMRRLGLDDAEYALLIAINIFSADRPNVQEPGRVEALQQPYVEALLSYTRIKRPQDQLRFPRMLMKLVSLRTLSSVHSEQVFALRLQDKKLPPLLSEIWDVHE

[11] = Luminescence Cell-Based Dose Confirmation to Identify Activators of 5'UTR Stem-Loop Driven Alpha-Synuclein mRNA Translation in H4 Neuroglioblastoma Cells. [Related pubchem assays: 1829 (Project Summary), 1814 (Primary HTS)]; assay type: functional
H4 = assay: Luminescence Cell-Based Dose Response HTS to Identify Activators of 5'UTR Stem-Loop Driven Prion Protein mRNA Translation in H4 Neuroglioblastoma Cells. [Related pubchem assays: 1829 (Project Summary), 1814 (Primary HTS)]; assay type: functional; conditions: Homo sapiens
[12] = Luminescence Cell-Based Dose Response to Identify Activators of 5'UTR Stem-Loop Driven Prion Protein mRNA Translation in H4-C Neuroglioblastoma Cells. [Related pubchem assays: 1829 (Project Summary), 1814 (Primary HTS)]; assay type: functional
[13] = Luminescence Cell-Based Dose Response to Identify Activators of Luciferase Translation or Activity in H4-C Neuroglioblastoma Cells. [Related pubchem assays: 1829 (Project Summary), 1814 (Primary HTS)]; assay type: functional
[14] = target: T4, Tyrosine-protein phosphatase non-receptor type 7 (Homo sapiens, UniProt P35236); assay: HePTP tyrosine phosphatase activity blockers – biochemical, absorbance, leukemia target, primary screen (AID 521); assay type: functional
T4 sequence (P35236 whole entry): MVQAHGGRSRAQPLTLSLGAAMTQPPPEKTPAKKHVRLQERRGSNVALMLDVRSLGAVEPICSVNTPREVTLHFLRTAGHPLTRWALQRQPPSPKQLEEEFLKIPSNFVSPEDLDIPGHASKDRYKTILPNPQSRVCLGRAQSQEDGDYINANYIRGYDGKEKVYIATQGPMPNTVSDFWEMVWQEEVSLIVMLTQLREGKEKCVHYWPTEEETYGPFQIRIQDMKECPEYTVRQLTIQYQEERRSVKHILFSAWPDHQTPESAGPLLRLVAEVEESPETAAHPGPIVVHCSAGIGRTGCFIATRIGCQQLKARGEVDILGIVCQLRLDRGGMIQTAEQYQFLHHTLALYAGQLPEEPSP

Kallikrein-7 = Kallikrein-7 (Homo sapiens, UniProt P49862); assay: Fluorescence Intensity-based biochemical primary high throughput dose response assay to identify activators of kallikrein-7 (K7) zymogen.
Chain of Kallikrein-7 (P49862 whole entry): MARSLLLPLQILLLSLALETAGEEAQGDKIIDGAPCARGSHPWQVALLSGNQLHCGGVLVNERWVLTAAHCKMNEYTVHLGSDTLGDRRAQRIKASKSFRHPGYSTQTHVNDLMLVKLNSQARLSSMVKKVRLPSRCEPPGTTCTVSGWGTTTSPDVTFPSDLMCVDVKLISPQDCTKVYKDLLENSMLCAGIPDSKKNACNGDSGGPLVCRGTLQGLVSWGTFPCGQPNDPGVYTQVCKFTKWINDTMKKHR

[15] = Luminescence Cell-Based Dose Response HTS to Identify Activators of Luciferase Translation or Activity in H4 […] Cells. [Related pubchem assays: 1829 (Project Summary), 1814 (Primary HTS)]; assay type: functional
[16] = viability loss in MITF-independent A375 cells – cell-based, CellTiter-Glo luminescence, dry powder, set 2, counter-screen for MITF inhibitor project, dose response (AID 624489); assay type: functional; conditions: A-375;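 note: actives are compounds lowering A375 viability meaning general cytotoxicity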
[17] = cytotoxicity in MITF-independent A375 cells – cell-based, CellTiter-Glo luminescence, dry powder, set 4, counter-screen for MITF inhibitor project, dose response (AID 624364); assay type: functional; conditions: A-375;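 note: A375 melanoma cells are MITF independent so this is a counter screen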
[18] = NIH-3T3 fibroblast cytotoxicity, dose response, cytotoxicity control, cell-based, fluorescence, Alamar Blue, secondary assay (AID 2327); assay type: functional;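 note: NIH-3T3 mouse fibroblasts cultured with fluconazole at 8 µg/mL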
[19] = fluconazole-exposed Candida albicans growth modulators – fluorescence, retest, confirmation (AID 2467); assay type: functional, cell-based
[20] = NIH3T3 cell viability loss – ATP luminescence, mouse fibroblasts, counter-screen, dose response (AID 2010); assay type: functional, cell-based;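 note: cells exposed to compound for about 90 hours before reading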
Vero = assay: cells; assay type: functional; conditions: Chlorocebus sabaeus
[21] = Trypanosoma cruzi growth suppression in host cells – NIH3T3 host cells, beta-gal luminescence, confirmation (AID 2044); assay type: functional, cell-based;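 note: intracellular parasites grown in NIH/3T3 mouse fibroblasts as host cells; luminescent beta-galactosidase reporter signal from transgenic T. cruzi replicating inside host cells; inhibitors lower the luminescence signal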
[22] = target: Glucose-6-phosphate 1-dehydrogenase (Homo sapiens, UniProt P11413); assay: inhibition of Homo sapiens G6PD, dose series – biochemical, fluorescence, selectivity assay for P. falciparum G6PD inhibitor project, dose response (AID 504792); assay type: functional
Chain of Glucose-6-phosphate 1-dehydrogenase (P11413 whole entry): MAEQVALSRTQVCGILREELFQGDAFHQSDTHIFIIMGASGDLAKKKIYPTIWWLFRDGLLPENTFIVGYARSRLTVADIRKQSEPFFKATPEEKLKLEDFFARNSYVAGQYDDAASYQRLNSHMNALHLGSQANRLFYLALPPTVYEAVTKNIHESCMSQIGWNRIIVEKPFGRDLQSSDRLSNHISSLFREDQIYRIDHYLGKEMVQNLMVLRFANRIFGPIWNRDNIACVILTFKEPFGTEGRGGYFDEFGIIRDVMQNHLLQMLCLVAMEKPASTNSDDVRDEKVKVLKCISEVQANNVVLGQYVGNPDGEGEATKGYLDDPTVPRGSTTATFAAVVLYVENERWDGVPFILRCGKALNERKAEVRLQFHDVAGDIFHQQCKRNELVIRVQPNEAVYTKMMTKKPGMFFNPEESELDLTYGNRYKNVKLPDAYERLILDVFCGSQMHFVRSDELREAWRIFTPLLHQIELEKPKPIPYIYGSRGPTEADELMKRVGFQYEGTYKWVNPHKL

[23] = target: T5, Mannose-6-phosphate isomerase (Homo sapiens, UniProt P34949); assay: MPI inhibition at elevated mannose 6-phosphate – biochemical, fluorescence intensity, high mannose 6-phosphate, primary screen (AID 1220)
T5 sequence (P34949 whole entry): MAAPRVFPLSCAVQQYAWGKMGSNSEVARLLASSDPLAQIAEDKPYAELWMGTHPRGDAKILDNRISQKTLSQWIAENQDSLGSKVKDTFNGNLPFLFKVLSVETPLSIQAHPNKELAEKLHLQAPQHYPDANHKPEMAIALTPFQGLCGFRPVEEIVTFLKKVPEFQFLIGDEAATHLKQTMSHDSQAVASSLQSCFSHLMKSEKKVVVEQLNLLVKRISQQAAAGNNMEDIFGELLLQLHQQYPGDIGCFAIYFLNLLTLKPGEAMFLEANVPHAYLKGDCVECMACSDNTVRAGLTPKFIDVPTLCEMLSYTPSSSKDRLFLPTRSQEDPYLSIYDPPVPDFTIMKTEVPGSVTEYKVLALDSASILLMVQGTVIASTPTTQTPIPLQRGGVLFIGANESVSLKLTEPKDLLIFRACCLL

COc1ccc(C(CCNCc2ccc(OC(C)C)cc2)c2ccccc2OC)cc1 (configuration not stated)
AC50 (INS1): 7.21 µM (active) | AC50 [1]: 5.99 µM (active) | AC50 [2]: 6.44 µM (active) | AC50 [3]: 15.3 µM (active) | IC50 [4]: > 96.6 µM (inactive) | AC50 [5]: 4.38 µM (active)

Oc1ccccc1C=Nc1ccc(F)c2c(O)[nH]nc12
IC50 (Nonstructural protein 1): 41.6 µM (active) | IC50 (Protein Tat): 3.3 µM (inconclusive)

Cc1cc(NC(=O)CSc2nc(C(C)C)nc3c2c(=O)n(C)c(=O)n3C)no1
EC50 [6]: 12.3 µM (not active)

CC(=O)Nc1ccc(S(=O)(=O)N(C)CC(=O)OCC(=O)N2CCc3ccccc32)cc1
EC50 [6]: 149 µM (not active)

COc1ccccc1Cn1c(=O)c2ccccc2n2c(SCC(=O)N3CCCCC3)nnc12
IC50 [7]: > 100 µM (inactive) | IC50 [8]: > 100 µM (not active)

O=C(O)C1Nc2ccc(OC(F)(F)F)cc2C2C=CCC12 (configuration not stated)
IC50 (Bcl-2-like protein 1): 60.6 µM (not active) | IC50 [9]: 8.63 µM (active) | IC50 (Large T antigen): 12.7 µM (active)

Cc1ccc(NC(=O)CSc2nnc(-c3cnccn3)n2Cc2ccco2)cc1C
EC50 (Estrogen receptor): 37.6 µM (not active)

CN(C1CCCCC1)S(=O)(=O)c1ccc(S(=O)(=O)N2CCN(CCC#N)CC2)cc1
IC50 (Estrogen receptor beta): > 50 µM (not active)

CC(=O)Nc1ccc(NC(=O)CSCc2cnn(-c3ccccc3)c2-n2cccc2)cc1
IC50 (Protein Tat): > 100 µM (active)

Cc1cc(/C=C2\SC(=S)N=C2O)c(C)n1-c1ccccc1
EC50 [10]: > 67.6 µM (inactive)

Cc1cc(/C=C2\SC(=S)NC2=O)c(C)n1-c1ccccc1
EC50 (cells): > 67.6 µM (inactive)

CC(C)(C)c1ccc(OCCn2ccccc2=O)cc1
EC50 [11]: 0.668 µM (active) | EC50 (H4): < 0.1 µM (active) | EC50 [12]: 0.546 µM (active) | EC50 [13]: 0.237 µM (active)

CCn1cc(C(=O)NCC2CCCO2)c(=O)c2cc(S(=O)(=O)N3CCC(C)CC3)ccc21 (configuration not stated)
IC50 [14]: > 100 µM (not active)

CCc1ccccc1NC(=O)CSc1nc2nnc(C)c-2c(N)n1-c1ccc(OC)cc1
EC50 (Kallikrein-7): 4.1 µM (active)

O=c1nc(NCc2ccco2)sc2ncccc12
IC50 [7]: > 100 µM (inactive) | IC50 [8]: > 100 µM (not active)

O=C(Nc1ncc2c(n1)-c1ccccc1OC2)c1ccc(F)cc1
EC50 (Kallikrein-7): > 69.5 µM (inactive)

O=C(NC1=NCCS1)c1ccc(Cl)cc1
EC50 [11]: 0.24 µM (active) | EC50 (H4): 101 µM (active) | EC50 [15]: < 0.1 µM (inconclusive) | EC50 [12]: 0.744 µM (active) | EC50 [13]: 0.401 µM (active)

COc1ccc(OC)c(C2C(C(=O)Nc3ccccc3OC)=C(C)Nc3nc(CCCO)nn32)c1 (configuration not stated)
IC50 [14]: > 100 µM (not active)

O=C1C(NS(=O)(=O)c2ccc(Br)s2)=C(N2CCCCC2)C(=O)c2ccccc21
AC50 [16]: > 70 µM (inactive) | AC50 [17]: > 70 µM (inactive)

COC(=O)C1=C(C)N(Cc2ccc(C(F)(F)F)cc2)C(NCc2cccc(C(F)(F)F)c2)=NC1c1ccccc1C(F)(F)F (configuration not stated)
IC50 [4]: > 96.6 µM (inactive)

COc1cccc(C2=C(NC(=O)c3ccccc3)C(=O)c3ccccc3C2=O)c1
AC50 [16]: 10.5 µM (active) | AC50 [17]: 21 µM (active)

COc1cc(CNc2ccc(N3CCCC3)cc2)cc(Cl)c1OC
EC50 [18]: 48.1 µM (inconclusive) | EC50 [19]: > 38 µM (not active) | EC50 [20]: > 30 µM (not active) | CC50 (Vero): 4.57 µM (active) | EC50 [21]: 2.95 µM (active) | IC50 [22]: > 80 µM (inactive) | IC50 [23]: > 50 µM (not active)
